Laboratory results taken from US12275685B2, “Oligo-benzamide analogs and their use in cancer treatment” (Board of Regents, The University of Texas System, priority 2018, dated 2025).

Columns and labels:
[1] = tested on: pancreatic cancer MiaPaca cells; experiment: ER stress in pancreatic cancer cells by electron microscopy; assay type: cell-based
Text: The basal level of expression of endoplasmic reticulum stress and unfolded protein response correlates with TK41 activity (FIG. 28). Modulation of the level of these stress proteins affects the activity of TK41. Thus, the basal level of expression of endoplasmic reticulum stress and unfolded protein response proteins may serve as a biomarker to predict response to TK41. […] Without wishing to be bound by any particular theory, the mechanism of action of TK41 may operate comprise targeting either ER or TLX and inducing endoplasmic reticulum stress, subsequent apoptosis, and blocking autophagic fusion (FIG. 30).

HMEC cells = experiment: Live cell imaging with SYTOX Green, HMEC; assay type: cell-based, human
Text: FIGS. 34A-C: Dose response curve of ERX-41 in multiple TNBC. cell lines using WST-1 assays (FIG. 34A) and CellTiter-Glo assays (FIG. 34B). […] Quantification of the number of dead cells over time seen with live cell imaging in MDAMB-231 and HMEC cells is shown.
To evaluate the generalizability of the inventors' findings, they evaluated ERX-41 in a large number of TNBC and ERa-positive cell lines.

[2] = Pharmacokinetic studies of ERX-41; assay type: in vivo, mice
Description: FIGS. 35A-P: ERX-41 is potent against TNBC in vivo. (FIG. 35A) Following establishment of subcutaneous MDA-MB-231 xenograft tumors (200 mm^3), 10 mg/kg single dose ERX-41 was administered either by oral or intraperitoneal route. The tumor was harvested 0, 0, 5, 1, 5, 3, 6 and 24 h after drug administration and the drug levels assayed by LC-MS/MS and graphed. (FIGS. 35B-E) Following establishment of MDA-MB-231 xenografts in mammary fat pad in vivo (100 mm^3 size), daily administration of 10 mg/kg ERX-41 or vehicle control (N=8 each group) was initiated. Tumor volumes were measured using digital calipers and graphed (FIG. 35B). Tumor weights (FIG. 35C), body weights (FIG. 35D) and extirpated tumors (FIG. 35E) at end of study are also shown. (FIGS. 35F-H) Following establishment of D2A1 syngeneic xenografts in mammary fat pad in vivo (100 mm^3 size), daily administration of 10 mg/kg ERX-41 or vehicle control (N=8 each group) was initiated. Tumor volumes were measured using digital calipers and graphed (FIG. 35F) along with tumor weights (FIG. 35G) and body weights (FIG. 35H). (FIGS. 35I-P) Effect of ERX-41 on the growth (FIG. 351, FIG. 35K, FIG. 35M, FIG. 35O) and tumor weights (FIG. 35J, FIG. 35L, FIG. 35N, FIG. 35P) of four distinct TNBC PDXs compared to vehicle. *p<0.05. **p<0.01; ***p<0.001.
Additionally, ERX-41 was detectable within 1.5 h in established subcutaneous MDA-MB-231 xenograft tumors after oral or intraperitoneal administration (FIG. 35A). […] ERX-41 decreased tumor growth, as shown by extirpated tumor sizes at the end of study (FIG. 35C and FIG. 35E). […] The inventors validated the activity of ERX-41 in four distinct TNBC PDXs established in the mammary fat pad (FIGS. 35I-P).

[3] = tested on: xenografts of SUM-159 with LIPA KO; experiment: SUM-159 LIPA KO xenografts; assay type: in vivo, SCID mice; conditions: 10 mg/kg daily
Text: FIGS. 37A-J: The molecular target of ERX-41 in TNBC is LIPA. […] (FIG. 37B) Knockout clones of LIPA, ACACA, TMEM208, SOAT1 and ARID1A were generated in MDA-MB-231 cells and evaluated for response to ERX-41 using doseresponse curves using CellTiter-Glo assays in vitro. (FIGS. 37C-D) Effect of knockout of LIPA in SUM-159 (FIG. 37C) and MDA-MB436 (FIG. 37D) on dose response curve to ERX-41 using CellTiter-Glo assays in vitro. (FIGS. 37E-F) Dose response curves of SUM-159 parental cells and clones with LIPA KO to thapsigargin (FIG. 37E) and paclitaxel (FIG. 37F). (FIGS. 37G-H) Live cell imaging studies with SYTOX Green to examine ability of 1 μM ERX-41 to induce cell death in parental SUM-159 and SUM-159 clones with LIPA KO, with quantitation (FIG. 37G) and time-lapsed photomicrographs at 0 h and 30 h ((FIG. 37H). (FIGS. 37I-J) SCID mice were implanted with either parental SUM-159 or SUM-159 clones with LIPA KO (n=6, each group) and tumors were allowed to establish (150 mm^3). Following daily intraperitoneal administration of 10 mg/kg ERX-41, tumor sizes were measured and graphed (FIG. 37I), along with mice body weights (FIG. 37J). *p<0.05. **p<0.01; ***p<0.001.
The molecular target of ERX-41 in TNBC is LIPA. […] Knockout clones of LIPA, SLC5A3, SMAP2, TMEM208, SOAT1 and ARID1A were generated in multiple TNBC cells and evaluated for response to ERX-41.

For `CC(C)COc1cc(C(=O)Nc2ccc(C(=O)N[C@H]3CC[C@H](C)CC3)cc2OCC(C)C)ccc1NC(=O)c1ccc([N+](=O)[O-])c(OCCO)c1` [TK41], the “induction of endoplasmic reticulum stress in MiaPaca” value [1] was “Endoplasmic reticulum stress was also induced”, the “cell death in HMEC” value (HMEC cells) was “did not significantly induce cell death” and the oral bioavailability ([2]; mouse, in vivo, po) was “orally bioavailable”. The “time of peak detectable levels in the plasma” value ([2]; oral, 10 mg/kg single dose) was 4 h, the “time until detectable in tumors” value ([2]; subcutaneous MDA-MB-231 xenograft tumors, oral or intraperitoneal) was ≤ 1.5 h and the “response of SUM-159 LIPA KO xenografts” value [3] was “did not respond”.
